{"source": "patent US11618810B2", "about": "“Antiviral articles” (priority 2020, dated 2023)", "key": {"[1]": {"system": "IAV HA and NP protein", "experiment": "Western blot of IAV HA and NP protein levels", "conditions": "for stability of virus surface protein HA: IAV, after exposure"}, "[2]": {"system": "IAV NA segment", "experiment": "RT-qPCR of viral RNA (NA segment)", "conditions": "for viral RNA integrity (RT-qPCR): after treatment"}, "[3]": {"system": "SARS-CoV-2 S and N protein", "experiment": "Western blot of SARS-CoV-2 S and N protein levels", "conditions": "SARS-CoV-2, after exposure", "procedure": "FIG. 3C is a Western blot analysis of IAV HA and NP protein levels after exposure of IAV to the fabric of Example 3-A and comparative example A. Both the virus that was removed (eluate) from each fabric with PBSTE as well as the virus that remained on each fabric was analyzed and reported in FIG. 3D. Similarly, a Western blot analysis of SARS-CoV-2 S and N protein levels after exposure of virus to the Example 3-A and comparative example A as shown in FIG. 3E. Both the virus that was removed (eluate) from each fabric with PBSTE as well as the virus that remained on each fabric were analyzed and reported in FIG. 3F.\nThere was no effect on the viral nucleoprotein, which allowed use of the viral nucleoprotein as internal control. A similar altered surface protein to nucleoprotein ratio on the zinc-embedded PA66 fabrics was observed."}, "[4]": {"system": "IAV (H1N1)", "method": "To investigate if zinc ions can directly inactivate IAV, influenza virus was incubated with varying concentrations of zinc chloride."}, "[5]": {"system": "MDCK cells"}, "[6]": {"conditions": "IAV in the presence of zinc chloride"}}}
{"smiles": "[Cl-].[Cl-].[Zn+2]", "note": "[zinc chloride]", "values": [{"measurement": "HA levels (western blot)", "setting": "[1]; [6]", "result": "reduced in a concentration-dependent manner"}, {"measurement": "NP levels (western blot)", "setting": "[1]; [6]", "result": "did not diminish"}, {"measurement": "stability of virus surface protein HA", "setting": "[1]", "result": "reduced stability"}, {"measurement": "viral NA segment levels (RT-qPCR)", "setting": "[2]; IAV after zinc chloride and EDTA neutralization", "result": "No effect"}, {"measurement": "viral RNA integrity (RT-qPCR)", "setting": "[2]", "result": "no significant reduction"}, {"measurement": "stability of virus surface protein S", "setting": "[3]", "result": "reduced stability"}, {"measurement": "reduction on the IAV titer", "setting": "[4]; 60 min incubation, varying concentrations, stopped with equimolar EDTA", "result": "approximately 2 log"}, {"measurement": "cytotoxic effects in tissue culture", "setting": "[5]", "result": "cytotoxic"}]}
{"smiles": "[Cu+2]", "note": "[copper ions]", "values": [{"measurement": "stability of virus surface protein HA", "setting": "[1]", "result": "aberrant migration"}, {"measurement": "viral RNA integrity (RT-qPCR)", "setting": "[2]", "result": "no significant reduction"}, {"measurement": "stability of virus surface protein S", "setting": "[3]", "result": "aberrant migration"}]}
{"smiles": "O=C(O)CN(CCN(CC(=O)O)CC(=O)O)CC(=O)O", "note": "[EDTA]", "values": [{"measurement": "effect on viral titer", "setting": "[4]; EDTA alone", "result": "does not have any cytotoxic effects itself or reduce the viral titer"}]}
